Results taken from patent US7462600B2, “Macrolides” (Pfizer Inc, priority 2004, dated 2008).
Converted amounts (≈) assume the structure as drawn. Read-outs that look alike come from different tables or passages of the source.

Tests used:
Format in all cases: cell-based
[1] = tested on: Streptococcus pneumoniae 1016; assay: MIC, microtiter broth dilution (NCCLS M100-S14), S. pneumoniae 1016 (susceptible)
Description: (§1) The assay described herein includes a panel of bacterial strains assembled to include a variety of target pathogenic species, including representatives of macrolide resistance mechanisms that have been characterized. In many cases, both the macrolide-susceptible parent strain and the macrolide-resistant strain derived from it are available to provide a more accurate assessment of the compound's ability to circumvent the resistance mechanism. The assay is performed in microtiter trays and interpreted according to Performance Standards for Antimicrobial Susceptibility Testing; 14th Informational Supplement (M100-S14), published by The National Committee for Clinical Laboratory Standards (NCCLS) guidelines; the MIC is used to compare strains. Compounds are initially dissolved in DMSO as 40 mg/ml stock solutions.

[2] = tested on: Streptococcus pneumoniae 1095; details: microtiter broth dilution
Description: as §1

[3] = tested on: Streptococcus pneumoniae 1175; details: microtiter broth dilution
Description: as §1

[4] = tested on: Streptococcus pyogenes 1079; assay: MIC, microtiter broth dilution (NCCLS M100-S14), S. pyogenes 1079 (ermB)
Description: as §1

[5] = tested on: Haemophilus influenzae 1218; assay: MIC, microtiter broth dilution (NCCLS M100-S14), H. influenzae 1218 (susceptible)
Description: as §1

[6] = S. pneumoniae 1016 (susceptible)
[7] = H. influenzae 1218 (susceptible)

| SMILES | MIC S. pneumo. 1016 ([1]; Streptococcus pneumoniae 1016) | MIC S. pneumo. 1095 ([2]; Streptococcus pneumoniae 1095) | MIC S. pneumo. 1175 ([3]; Streptococcus pneumoniae 1175) | MIC S. pyogenes 1079 ([4]; Streptococcus pyogenes 1079) | MIC H. influenzae 1218 ([5]; Haemophilus influenzae 1218) | MIC S. pneumo. 1016 [1, 6] | MIC H. influenzae 1218 [5, 7] | MIC S. pneumo. 1095 ([2]; S. pneumoniae 1095 (ermB)) | MIC S. pneumo. 1175 ([3]; S. pneumoniae 1175 (mefA)) | MIC S. pyogenes 1079 ([4]; S. pyogenes 1079 (ermB)) |
| --- | --- | --- | --- | --- | --- | --- | --- | --- | --- | --- |
| CCC1OC(=O)C(C)C(=O)C(C)C(OC2OC(C)CC(N(C)C)C2O)C(C)(OC)CC(C)C(=O)C(C)C2N(C3CN(C(COC)c4ccnc5ncccc45)C3)C(=O)OC12C (stereo not drawn) [Example 1.81, 3-descladinosyl-11,12-dideoxy-4-O-methyl-3-oxo-12,11-(oxycarbonyl-(1-(2-(methoxy)-1R-(1,8-napthyridin-4-yl)-ethyl)-azetidin-3-yl)-imino)-erythromycin A] | <0.063 µg/mL | 0.5 µg/mL (≈ 0.585 µM) | <0.063 µg/mL | 4 µg/mL (≈ 4.68 µM) | – | – | – | – | – | – |
| CCC1OC(=O)C(C)C(=O)C(C)C(OC2OC(C)CC(N(C)C)C2O)C(C)(OC)CC(C)C(=O)C(C)C2N(CC3CN(C(=O)c4cccc5cccnc45)C3)C(=O)OC12C (stereo not shown) [Example 4.34, 3-descladinosyl-11,12-dideoxy-6-O-methyl-3-oxo-12,11-(oxycarbonyl-((1-(quinoline-8-carbonyl)-azetidin-3-yl)-methyl)-imino)-erythromycin A] | <0.06 µg/mL | 1 µg/mL (≈ 1.19 µM) | 1 µg/mL (≈ 1.19 µM) | – | 0.25 µg/mL (≈ 0.299 µM) | – | – | – | – | – |
| CCC1OC(=O)C(C)C(=O)C(C)C(OC2OC(C)CC(N(C)C)C2O)C(C)(OC)CC(C)C(=O)C(C)C2N(CC3CCN(Cc4cccc5cnccc45)C3)C(=O)OC12C (stereo not shown) [11.13] | – | – | – | – | – | <0.06 µg/mL | 0.25 µg/mL (≈ 0.299 µM) | <0.06 µg/mL | <0.06 µg/mL | – |
| CC[C@H]1OC(=O)[C@H](C)C(=O)[C@H](C)[C@@H](O[C@@H]2O[C@H](C)C[C@H](N(C)C)[C@H]2O)[C@](C)(OC)C[C@@H](C)C(=O)[C@H](C)[C@H]2N(CC3(C)CN(C(=O)c4nc5ccccc5[nH]4)C3)C(=O)O[C@]12C.O=CO [6.18] | – | – | – | – | – | <0.06 µg/mL | – | 0.25 µg/mL | 0.25 µg/mL | >64.00 µg/mL |
| CC[C@H]1OC(=O)[C@H](C)C(=O)[C@H](C)[C@@H](O[C@@H]2O[C@H](C)C[C@H](N(C)C)[C@H]2O)[C@](C)(OC)C[C@@H](C)C(=O)[C@H](C)[C@H]2N(CC3(C)CN(C(=O)c4ccnc5ccccc45)C3)C(=O)O[C@]12C.O=CO [6.13] | – | – | – | – | – | <0.06 µg/mL | – | 8 µg/mL | <0.06 µg/mL | >64.00 µg/mL |
| CC[C@H]1OC(=O)[C@H](C)C(=O)[C@H](C)[C@@H](O[C@@H]2O[C@H](C)C[C@H](N(C)C)[C@H]2O)[C@](C)(OC)C[C@@H](C)C(=O)[C@H](C)[C@H]2N(CC3(C)CN(C(=O)c4cc5cccnc5[nH]4)C3)C(=O)O[C@]12C [6.23] | – | – | – | – | – | <0.06 µg/mL | – | <0.06 µg/mL | 0.25 µg/mL (≈ 0.298 µM) | 64 µg/mL (≈ 76.2 µM) |
| CC[C@H]1OC(=O)[C@H](C)C(=O)[C@H](C)[C@@H](O[C@@H]2O[C@H](C)C[C@H](N(C)C)[C@H]2O)[C@](C)(OC)C[C@@H](C)C(=O)[C@H](C)[C@H]2N(CC3(C)CN(C(=O)c4cnc5ccccc5c4)C3)C(=O)O[C@]12C.O=CO [6.12] | – | – | – | – | – | <0.06 µg/mL | – | 0.25 µg/mL | 0.12 µg/mL | >64.00 µg/mL |
| CC[C@H]1OC(=O)[C@H](C)C(=O)[C@H](C)[C@@H](O[C@@H]2O[C@H](C)C[C@H](N(C)C)[C@H]2O)[C@](C)(OC)C[C@@H](C)C(=O)[C@H](C)[C@H]2N(CC3(C)CN(C(=O)c4cncc5ccccc45)C3)C(=O)O[C@]12C.O=CO [6.20] | – | – | – | – | – | <0.06 µg/mL | – | 64 µg/mL | 0.5 µg/mL | >64.00 µg/mL |
| CC[C@H]1OC(=O)[C@H](C)C(=O)[C@H](C)[C@@H](O[C@@H]2O[C@H](C)C[C@H](N(C)C)[C@H]2O)[C@](C)(OC)C[C@@H](C)C(=O)[C@H](C)[C@H]2N(CC3(C)CN(C(=O)c4cccc5cccnc45)C3)C(=O)O[C@]12C.O=CO [6.17] | – | – | – | – | – | <0.06 µg/mL | – | >64.00 µg/mL | 0.12 µg/mL | >64.00 µg/mL |
| CCC1OC(=O)C(C)C(=O)C(C)C(OC2OC(C)CC(N(C)C)C2O)C(C)(OC)CC(C)C(=O)C(C)C2N(C3CN(Cc4nc5ccccc5[nH]4)C3)C(=O)OC12C (stereo not shown) [Example 1.09, (1H-benzo[d]imidazo-2-yl)methyl] | <0.06 µg/mL | <0.06 µg/mL | 0.25 µg/mL (≈ 0.313 µM) | >64.00 µg/mL | – | – | – | – | – | – |
| CC[C@H]1OC(=O)[C@H](C)C(=O)[C@H](C)[C@@H](O[C@@H]2O[C@H](C)C[C@H](N(C)C)[C@H]2O)[C@](C)(OC)C[C@@H](C)C(=O)[C@H](C)[C@H]2N(CC3(C)CN(C(=O)c4cccc5ncccc45)C3)C(=O)O[C@]12C.O=CO [6.14] | – | – | – | – | – | <0.06 µg/mL | – | 8 µg/mL | 0.25 µg/mL | >64.00 µg/mL |
| CC[C@H]1OC(=O)[C@H](C)C(=O)[C@H](C)[C@@H](O[C@@H]2O[C@H](C)C[C@H](N(C)C)[C@H]2O)[C@](C)(OC)C[C@@H](C)C(=O)[C@H](C)[C@H]2N(CC3(C)CN(C(=O)c4ccc5ncsc5c4)C3)C(=O)O[C@]12C.O=CO [6.19] | – | – | – | – | – | <0.06 µg/mL | – | 1 µg/mL | 0.5 µg/mL | >64.00 µg/mL |
| CC[C@H]1OC(=O)[C@H](C)C(=O)[C@H](C)[C@@H](O[C@@H]2O[C@H](C)C[C@H](N(C)C)[C@H]2O)[C@](C)(OC)C[C@@H](C)C(=O)[C@H](C)[C@H]2N(CC3(C)CN(C(=O)c4ccc5cccnc5c4)C3)C(=O)O[C@]12C.O=CO [6.16] | – | – | – | – | – | <0.06 µg/mL | – | 0.12 µg/mL | 0.12 µg/mL | >64.00 µg/mL |
| CCC1OC(=O)C(C)C(=O)C(C)C(OC2OC(C)CC(N(C)C)C2O)C(C)(OC)CC(C)C(=O)C(C)C2N(CC3CCN(Cc4cccc5cccnc45)C3)C(=O)OC12C (stereo not shown) [11.12] | – | – | – | – | – | <0.06 µg/mL | <0.06 µg/mL | <0.06 µg/mL | <0.06 µg/mL | – |
| CCC1OC(=O)C(C)C(=O)C(C)C(OC2OC(C)CC(N(C)C)C2O)C(C)(OC)CC(C)C(=O)C(C)C2N(C3CN(Cc4ccc5ncccc5c4)C3)C(=O)OC12C (stereo not shown) [Example 1.07, (quinolin-6-yl)methyl] | <0.06 µg/mL | <0.06 µg/mL | 0.25 µg/mL (≈ 0.309 µM) | 16 µg/mL (≈ 19.8 µM) | – | – | – | – | – | – |
| CC[C@H]1OC(=O)[C@H](C)C(=O)[C@H](C)[C@@H](O[C@@H]2O[C@H](C)C[C@H](N(C)C)[C@H]2O)[C@](C)(OC)C[C@@H](C)C(=O)[C@H](C)[C@H]2N(CC3(C)CN(C(=O)c4ccc5ncccc5c4)C3)C(=O)O[C@]12C.O=CO [6.15] | – | – | – | – | – | <0.06 µg/mL | – | 8 µg/mL | 2 µg/mL | >64.00 µg/mL |
| CCC1OC(=O)C(C)C(=O)C(C)C(OC2OC(C)CC(N(C)C)C2O)C(C)(OC)CC(C)C(=O)C(C)C2N(C3CN(Cc4ccn(-c5ccccn5)n4)C3)C(=O)OC12C (stereo not shown) [Example 1.10] | <0.06 µg/mL | <0.06 µg/mL | 0.12 µg/mL (≈ 0.145 µM) | >64.00 µg/mL | – | – | – | – | – | – |
| CCC1OC(=O)C(C)C(=O)C(C)C(OC2OC(C)CC(N(C)C)C2O)C(C)(OC)CC(C)C(=O)C(C)C2N(C3CN(Cc4ccc(F)c(F)c4)C3)C(=O)OC12C (stereo not shown) [Example 1.08, 3,4-difluorobenzyl] | <0.06 µg/mL | 0.5 µg/mL (≈ 0.63 µM) | 0.25 µg/mL (≈ 0.315 µM) | >64.00 µg/mL | – | – | – | – | – | – |
| CC[C@H]1OC(=O)[C@H](C)C(=O)[C@H](C)[C@@H](O[C@@H]2O[C@H](C)C[C@H](N(C)C)[C@H]2O)[C@](C)(OC)C[C@@H](C)C(=O)[C@H](C)[C@H]2N(CC3(C)CN(C(=O)c4cccc(-n5cccn5)n4)C3)C(=O)O[C@]12C.O=CO [6.21] | – | – | – | – | – | <0.06 µg/mL | – | 16 µg/mL | 0.5 µg/mL | >64.00 µg/mL |
